Measured values as given in patent US20040092498A1, “Substituted glycine derivatives for use as medicaments” (priority 2002, published 2004).

The molecules below were run on α2δ subunit (assay: radioligand binding assay using [3H]gabapentin and the α2δ subunit). Settings: [3H]gabapentin radioligand; α2δ subunit derived from porcine brain tissue.
Source text: The biological activity of the compounds of the invention may be measured in a radioligand binding assay using [^3H]gabapentin and the α2δ subunit derived from porcine brain tissue (Gee N. S., Brown J. P., Dissanayake V. U. K., Offord J., Thurlow R., Woodruff G. N., J. Biol. Chem., 1996;271:[…]). Results may be expressed in terms of μM or nM α2δ binding affinity.

SMILES | Activity (binding affinity)
O=C(O)CNCCSc1ccc(Cl)cc1 [Example 6, ({2-[(4-Chlorophenyl)sulfanyl]ethyl}amino)acetic acid] | 198 nM
NCc1ccc(SCCNCC(=O)O)cc1 [Example 8, [(2-{[4-(Aminomethyl)phenyl]sulfanyl}ethyl)amino]acetic acid] | 987 nM
O=C(O)CNCCOc1ccc(Cl)cc1Cl [Example 9, {[2-(2,4-Dichlorophenoxy)ethyl]amino}acetic acid] | 1665 nM
O=C(O)CNCCSCc1ccc(Cl)cc1 [Example 10, ({2-[(4-Chlorobenzyl)sulfanyl]ethyl}amino)acetic acid] | 507 nM
O=C(O)CNCCSc1ccc2ccncc2c1 [Example 11, {[2-(7-Isoquinolinylsulfanyl)ethyl]amino}acetic acid] | 71 nM
CCOC(=O)CNCCSc1ccc(Cl)cc1 [Example 12, Ethyl ({2-[(4-chlorophenyl)sulfanyl]ethyl}amino)acetate] | 5406 nM
